# Reference: US20040214192A1, “Methods of testing for allergic diseases and therapeutic agents for treating same” (Genox Research, Inc., priority 2002, published 2004)
# T1: LBD of Nor1 (Homo sapiens, UniProt Q92570)
# T1 construct: GST-LBD of Nor1 was expressed in E. coli and purified; GST (N); made in house; host or cells: E. coli
# T1 sequence (Q92570 394-623 limits assumed): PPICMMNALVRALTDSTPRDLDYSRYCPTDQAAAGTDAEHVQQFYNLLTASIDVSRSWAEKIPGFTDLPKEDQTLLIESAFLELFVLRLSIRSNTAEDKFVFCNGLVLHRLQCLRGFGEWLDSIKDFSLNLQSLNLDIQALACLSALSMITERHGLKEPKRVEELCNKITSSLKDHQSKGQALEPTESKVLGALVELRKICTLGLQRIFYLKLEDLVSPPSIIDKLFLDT
# B1: IL-4: cytokine used to activate eosinophils (protein, UniProt P05112 25-153, looked up)
# Interleukin-4: HKCDITLQEIIKTLNSLTEQKTLCTELTVTDIFAASKNTTEKETFCRAATVLRQFYSHHEKDTRCLGATAQQFHRHKQLIRFLKRLDRNLWGLAGLNSCPVKEANQSTLENFLERLKTIMREKYSKCSS
# Columns and labels:
# [1] = biological target: T2, full-length NOR-1 (MINOR) (Homo sapiens, UniProt Q92570); assay: Mammalian Two Hybrid luciferase reporter, GAL4-full-length Nor1 construct; type: cell-based; conditions: for Full length Nor1-ligand activity RXR(+) / Full length Nor1-ligand activity RXR(−): NIH3T3 cells, luciferase; for Full length Nor1-ligand activity RXR(+): with RXRα; for function of enhancing the transcriptional activation ability of NOR-1 (MINOR): luciferase reporter system; for Full length Nor1-ligand activity RXR(−): without RXRα
# T2 construct: Full length Nor1-; expressed in transfected cells; host or cells: NIH3T3
# Procedure: A full-length gene or the ligand-binding site of NOR-1 is inserted into X, and the full-length gene of the retinoic acid X receptor (RXR)α is inserted into Y. These constructs are transfected into NIH3T3 cells, and the activity of induced luciferase is measured.
# Mammalian Two Hybrid system was slightly modified. […] Actually, activity could not be detected for lipid-soluble metabolites existing on the metabolic map of mammals that might be natural ligands of NOR-1 in a screening system wherein only the ligand-binding domain was inserted. A plasmid wherein the full-length gene of NOR-1 (MINOR) had been inserted into pBIND and a luciferase reporter plasmid containing a GAL4 binding site were cotransfected into NIH3T3 cells, and the luciferase activity was measured automatically. By further addition of small molecule substances to this system enables screening of ligands by their transcription enhancing activity.
# NOR-1 (MINOR) expression is induced under conditions where the leukocytes are hyperactive, such as in atopic dermatitis peripheral blood, and apoptosis of cells is very likely to occur as a result of this induced NOR-1 (MINOR) expression. Ligands existing in vivo may exist at sites where nuclear receptors are highly expressed. Therefore, small-molecule lipid-soluble mediators that are expected to be produced under such conditions were added to the assay system as candidate ligands to evaluate their luciferase activity enhancing function. […] Thus, the method established by the present inventors opened a way to discover native ligands and synthetic ligands of NOR-1 (MINOR) by high throughput.
# LBD of Nor1 = biological target: T1, LBD of Nor1; assay: BIAcor S51 binding to GST-LBD of Nor1; conditions: BIAcor S51, comparison with GST
# Text: Glutathione S-transferase (GST) was used as a comparison control and 13,14-Dihydro-15-keto-PGA2 as a negative control.
# In the present invention, as a means for detecting or measuring bound compound, a biosensor utilizing surface plasmon resonance phenomenon may be used. A biosensor (for example, BIAcore, Pharmacia) utilizing the surface plasmon resonance phenomenon allows real-time observation of the interaction between the NOR-1 protein and a test compound as a surface plasmon resonance signal. Therefore, using biosensors such as BIAcore, the binding between the NOR-1 protein and the test compound can be evaluated.
# [2] = tested on: Nor1 gene that completely lacked the LBD region (ΔLBD); assay: Mammalian Two Hybrid reporter with LBD deletion mutant of Nor1; type: cell-based, human; conditions: Nor1 lacking the LBD region
# Text: Therefore, prostaglandin A2 was implicated to function by actually acting on the LBD region of the nuclear receptor.
# [3] = tested on: Nor1 expression in peripheral blood eosinophils; assay: Nor1 expression induction in cultured peripheral blood eosinophils; type: cell-based, human; conditions: cultured peripheral blood eosinophils from healthy subjects
# Text: Values collected for beta-actin and GAPDH are shown.
# A large amount of peripheral blood eosinophils were collected from healthy subjects, and cultured in suspension in a petri dish while suppressing their activation. […] The anti-CD30 antibody that has an agonistic activity against eosinophilic CD30 has recently been receiving attention, because it induces apoptosis of eosinophils via a specific intracellular pathway and may serve as a therapeutic agent for asthma.
# Thus, the apoptosis by anti-CD30 antibody accompanied by induction of Nor1 may occur through an eosinophil-specific apoptosis pathway that is different from the conventional pathway.
# T2 sequence (Q92570 whole entry, the tested form may be a part): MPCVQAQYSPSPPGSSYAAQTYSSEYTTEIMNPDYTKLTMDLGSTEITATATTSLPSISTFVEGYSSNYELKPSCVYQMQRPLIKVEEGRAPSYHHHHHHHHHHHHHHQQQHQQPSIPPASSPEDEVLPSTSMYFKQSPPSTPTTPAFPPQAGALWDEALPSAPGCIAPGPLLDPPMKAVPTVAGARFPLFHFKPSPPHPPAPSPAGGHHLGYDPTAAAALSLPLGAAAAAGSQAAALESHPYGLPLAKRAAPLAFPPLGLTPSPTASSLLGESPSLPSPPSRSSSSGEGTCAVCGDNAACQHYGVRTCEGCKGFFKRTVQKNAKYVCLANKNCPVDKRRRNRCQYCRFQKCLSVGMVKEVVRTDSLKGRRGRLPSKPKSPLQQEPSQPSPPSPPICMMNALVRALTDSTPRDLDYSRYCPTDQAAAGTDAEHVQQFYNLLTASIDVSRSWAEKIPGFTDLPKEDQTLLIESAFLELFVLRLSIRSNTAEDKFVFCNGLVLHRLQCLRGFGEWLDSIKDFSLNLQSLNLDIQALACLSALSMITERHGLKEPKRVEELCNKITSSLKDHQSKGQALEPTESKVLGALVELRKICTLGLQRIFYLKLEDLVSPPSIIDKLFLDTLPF
Molecule,Full length Nor1-ligand activity RXR(+) [1],Full length Nor1-ligand activity RXR(+) ([1]; symbol),function of enhancing the transcriptional activation ability of NOR-1 (MINOR) [1],binding to the LBD of Nor1 (LBD of Nor1),Full length Nor1-ligand activity RXR(−) [1],Full length Nor1-ligand activity RXR(−) ([1]; symbol),transcriptional activity with LBD deletion mutant [2],induction of Nor1 [3]
CCCCC[C@H](O)/C=C/[C@H]1C=CC(=O)[C@H]1CCCCCCC(=O)O [8-iso Prostaglandin A1],10 µM,∘,–,–,–,–,–,–
"CCCCCC(=O)CC[C@H]1C=CC(=O)[C@@H]1C/C=C\CCCC(=O)O [13,14-dihydro-15-keto Prostaglandin A2]",–,–,did not show any activity in the reporter system,did not bind to LBD,–,–,–,–
CCCCC[C@@](C)(O)/C=C/[C@H]1C=CC(=O)[C@@H]1C/C=C\CCCC(=O)O [15(R)-15-methyl Prostaglandin A2],10 µM,∘,enhancing the transcriptional activation ability of NOR-1 (MINOR),–,10 µM,∘,–,–
"CCCCC/C=C\C=C1\C(=O)C=C[C@@H]1C/C=C\CCCC(=O)O [15-dioxy-Δ^12,14-Prostaglandin J2]",10 µM,∘,–,–,–,–,–,–
"CCCCC(C)(C)[C@H](O)/C=C/[C@H]1C=CC(=O)[C@@H]1C/C=C\CCCC(=O)O [16,16-dimethyl Prostaglandin A2]",5 µM,∘,–,–,5 µM,∘,–,–
O=C(O)CCC/C=C\C[C@H]1C(=O)C=C[C@@H]1/C=C/[C@@H](O)COc1ccccc1 [16-phenoxy tetranor Prostaglandin A2],30 µM,∘,enhancing the transcriptional activation ability of NOR-1 (MINOR),–,30 µM,∘,–,–
O=C(O)CCC/C=C\C[C@H]1C(=O)C=C[C@@H]1/C=C/[C@@H](O)CCc1ccccc1 [17-phenyl trinor Prostaglandin A2],10 µM,∘,enhancing the transcriptional activation ability of NOR-1 (MINOR),–,10 µM,∘,–,–
CCCCC[C@H](O)/C=C/[C@H]1C=CC(=O)[C@@H]1CCCCCCC(=O)O [Prostaglandin A1],10 µM,∘,enhancing the transcriptional activation ability of NOR-1 (MINOR),binding of PGA1 and PGA2 to the LBD of Nor1 was detected,10 µM,∘,–,–
CCCCC[C@H](O)/C=C/[C@H]1C=CC(=O)[C@@H]1C/C=C\CCCC(=O)O [Prostaglandin A2],10 µM,∘,enhancing the transcriptional activation ability of NOR-1 (MINOR),binding of PGA1 and PGA2 to the LBD of Nor1 was detected,10 µM,∘,remarkable suppression of the transcriptional activity,–
IL-5: cytokine used to activate eosinophils,–,–,–,–,–,–,–,did not lead to the induction of Nor1
B1,–,–,–,–,–,–,–,did not lead to the induction of Nor1
